The results in this text go back to patent publication US20240309003A1, “HETEROCYCLIC COMPOUNDS AS TRIGGERING RECEPTOR EXPRESSED ON MYELOID CELLS 2 AGONISTS AND METHODS OF USE” (Vigil Neuroscience, Inc., priority 2021, published 2024).

Bounds are passed on as bounds.

T1 sequence (Q9NZC2 19-230): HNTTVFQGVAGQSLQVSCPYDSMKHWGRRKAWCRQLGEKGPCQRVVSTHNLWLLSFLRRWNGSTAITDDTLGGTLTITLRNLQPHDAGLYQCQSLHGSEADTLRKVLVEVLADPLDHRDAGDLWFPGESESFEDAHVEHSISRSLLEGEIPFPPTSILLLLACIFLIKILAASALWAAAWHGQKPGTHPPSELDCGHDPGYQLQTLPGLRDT
T1 sequence (O43914 22-113 partner): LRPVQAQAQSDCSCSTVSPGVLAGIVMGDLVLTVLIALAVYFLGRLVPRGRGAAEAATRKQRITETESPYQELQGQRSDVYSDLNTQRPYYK

The assay has as its target T1, human TREM2 (Homo sapiens, UniProt Q9NZC2).
T1 construct: expressed in transfected cells; host or cells: HEK293T
The assay is described as follows: TREM2 agonist potency by cellular phosphorylation of Syk (AlphaLisa) in HEK293T-hTREM2 cells. Particulars: HEK293 cells expressing human TREM2 and DAP12, Table D. It is filed as cell-based. The method, then:
In Vitro Measurement of Triggering Receptor Expressed on Myeloid Cells 2 Activity Using Cellular Phosphorylation of Spleen Tyrosine Kinase (“Syk”) Assays
Measurement of TREM2 agonist potency was done using a HEK cell line expressing human TREM2 and DAP12 (HEK293T-hTREM2 cells). Binding of small molecules to, and activation of, TREM2 increases the phosphorylation of Syk. The resultant levels of Syk phosphorylation are measured using a commercial AlphaLisa reagent kit. To perform the assay, HEK-hTREM2 cells were plated at 14,000 cells per well in a 384 well plate, in 25 μL of complete growth media and incubated at 37° C., 5% CO2 for 20-24 hours.
Prior to the assay, test compounds were diluted in the 384 well plates in assay buffer and allowed to equilibrate for 30 minutes. Growth media was removed from cell plates by inversion on blotting paper, and 25 μL of test articles in assay buffer was added to cells. Cells were incubated for 45 minutes at room temperature. After 45 minutes, assay buffer was removed and 10 μL of lysis buffer was added. Plates were shaken for 20 minutes at 350 RPM at room temperature. After complete lysis, AlphaLisa reagents were added to the lysate, and fluourescence intensity was measured using a Perkin Elmer Envision plate reader. Intensities were used to generate a standard curve, and % activation was calculated. Curve fitting was performed using Prism v9 software, log(agonist) vs response-variable slope (four parameters), and EC50s were calculated from the curve fit.
This assay may be used to test any of the compounds described herein to assess and characterize a compound's ability to act as an agonist of TREM2.
In general terms: Bead proximity is the source of the signal in Alpha formats.
For the compound `Cc1cc([C@@H]2C[C@H](c3nc(-c4ccc(Cl)c(F)c4F)c4ncc(C)nc4n3)CCO2)ccn1` [Example 131, 4-(4-chloro-2,3-difluorophenyl)-7-methyl-2-((2S,4R)-2-(2-methylpyridin-4-yl)tetrahydro-2H-pyran-4-yl)pteridine], the concentration for a half-maximal effect (EC50) fell in the range of 500 to 3000 nM. To `Cc1cc([C@@H]2C[C@H](c3nc(-c4cc(F)c(Cl)c(F)c4)c4nc(C)c(C)nc4n3)CCO2)ccn1` [Example 132, 4-(4-chloro-3,5-difluorophenyl)-6,7-dimethyl-2-((2S,4R)-2-(2-methylpyridin-4-yl)tetrahydro-2H-pyran-4-yl)pteridine] belongs 3000 to 100000 nM; to `Cc1cc([C@H]2C[C@@H](c3nc(-c4cc(F)c(Cl)c(F)c4)c4nc(C)c(C)nc4n3)CCO2)ccn1` [Example 133, 4-(4-chloro-3,5-difluorophenyl)-6,7-dimethyl-2-((2R,4S)-2-(2-methylpyridin-4-yl)tetrahydro-2H-pyran-4-yl)pteridine], less than 50 nM; to `[2H]C([2H])([2H])c1nc2nc([C@@H]3CCO[C@H](c4ccnc(C)c4)C3)nc(-c3ccc(Cl)c(F)c3F)c2nc1C([2H])([2H])[2H]` [Example 136, 4-(4-chloro-2,3-difluorophenyl)-6,7-bis(methyl-d3)-2-((2S,4R)-2-(2-methylpyridin-4-yl)tetrahydro-2H-pyran-4-yl)pteridine], less than 50 nM. To `[2H]C([2H])([2H])c1nc2nc([C@H]3CCO[C@@H](c4ccnc(C)c4)C3)nc(-c3ccc(Cl)c(F)c3F)c2nc1C([2H])([2H])[2H]` [Example 137, 4-(4-chloro-2,3-difluorophenyl)-6,7-bis(methyl-d3)-2-((2R,4S)-2-(2-methylpyridin-4-yl)tetrahydro-2H-pyran-4-yl)pteridine] belongs less than 50 nM; to `Cc1nc2nc([C@@H]3CCO[C@H](c4cnn(C5CC5)c4)C3)nc(-c3ccc(C(F)(F)F)cc3)c2nc1C` [Example 138, 2-((2S,4R)-2-(1-cyclopropyl-1H-pyrazol-4-yl)tetrahydro-2H-pyran-4-yl)-6,7-dimethyl-4-(4-(trifluoromethyl)phenyl)pteridine], 50 to 500 nM.

`Cc1nc2nc([C@H]3CCO[C@@H](c4cnn(C5CC5)c4)C3)nc(-c3ccc(C(F)(F)F)cc3)c2nc1C` [Example 139] displayed an EC50 of less than 50 nM. The figure for `Cc1cnc2c(C34CC(C(F)(F)F)(C3)C4)nc([C@H]3C[C@@H](C)O[C@@H](c4cnn(C5CC5)c4)C3)nc2n1` [Example 140, 2-((2R,4S,6R)-2-(1-cyclopropyl-1H-pyrazol-4-yl)-6-methyltetrahydro-2H-pyran-4-yl)-7-methyl-4-(3-(trifluoromethyl)bicyclo[1.1.1]pentan-1-yl)pteridine] is 500 to 3000 nM. The figure for `COc1ccc([C@H]2C[C@@H](c3nc(C45CC(C(F)(F)F)(C4)C5)c4nc(C)c(C)nc4n3)CCO2)cn1` [Example 141, 2-((2R,4S)-2-(6-methoxypyridin-3-yl)tetrahydro-2H-pyran-4-yl)-6,7-dimethyl-4-(3-(trifluoromethyl)bicyclo[1.1.1]pentan-1-yl)pteridine] is less than 50 nM; for `COc1ccc([C@@H]2C[C@H](c3nc(C45CC(C(F)(F)F)(C4)C5)c4nc(C)c(C)nc4n3)CCO2)cn1` [Example 142, 2-((2S,4R)-2-(6-methoxypyridin-3-yl)tetrahydro-2H-pyran-4-yl)-6,7-dimethyl-4-(3-(trifluoromethyl)bicyclo[1.1.1]pentan-1-yl)pteridine] it is 50 to 500 nM. The compound `COc1ncccc1[C@@H]1C[C@H](c2nc(C34CC(C(F)(F)F)(C3)C4)c3nc(C)c(C)nc3n2)CCO1` [Example 143, 2-((2S,4R)-2-(2-methoxypyridin-3-yl)tetrahydro-2H-pyran-4-yl)-6,7-dimethyl-4-(3-(trifluoromethyl)bicyclo[1.1.1]pentan-1-yl)pteridine] showed an EC50 of 500 to 3000 nM. The figure for `COc1ncccc1[C@H]1C[C@@H](c2nc(C34CC(C(F)(F)F)(C3)C4)c3nc(C)c(C)nc3n2)CCO1` [Example 144, 2-((2R,4S)-2-(2-methoxypyridin-3-yl)tetrahydro-2H-pyran-4-yl)-6,7-dimethyl-4-(3-(trifluoromethyl)bicyclo[1.1.1]pentan-1-yl)pteridine] is 50 to 500 nM. The figure for `COc1cccc([C@@H]2C[C@H](c3nc(C45CC(C(F)(F)F)(C4)C5)c4nc(C)c(C)nc4n3)CCO2)n1` [Example 145, 2-[ (2S,4R)-2-(6-methoxy-2-pyridyl)tetrahydropyran-4-yl] - 6,7-dimethyl-4-[3-(trifluoromethyl)-1-bicyclo[1.1.1]pentanyl]pteridine] is 500 to 3000 nM. The figure for `COc1cccc([C@H]2C[C@@H](c3nc(C45CC(C(F)(F)F)(C4)C5)c4nc(C)c(C)nc4n3)CCO2)n1` [Example 146, 2-[ (2R,4S)-2-(6-methoxy-2-pyridyl)tetrahydropyran-4-yl] - 6,7-dimethyl-4-[3-(trifluoromethyl)-1-bicyclo[1.1.1]pentanyl]pteridine] is 50 to 500 nM; for `Cc1nc2nc([C@@H]3CCO[C@H](c4cnn(C5CCC5)c4)C3)nc(-c3ccc(F)cc3F)c2nc1C` [Example 147, 2-((2S,4R)-2-(1-cyclobutyl-1H-pyrazol-4-yl)tetrahydro-2H-pyran-4-yl)-4-(2,4-difluorophenyl)-6,7-dimethylpteridine] it is 50 to 500 nM.

Consider `Cc1nc2nc([C@H]3CCO[C@@H](c4cnn(C5CCC5)c4)C3)nc(-c3ccc(F)cc3F)c2nc1C` [Example 148, 2-((2R,4S)-2-(1-cyclobutyl-1H-pyrazol-4-yl)tetrahydro-2H-pyran-4-yl)-4-(2,4-difluorophenyl)-6,7-dimethylpteridine], for which the EC50 was less than 50 nM. In turn, `Cc1nc2nc([C@@H]3CCO[C@H](c4cnn(CCF)c4)C3)nc(-c3ccc(F)cc3F)c2nc1C` [Example 149, 4-(2,4-difluorophenyl)-2-((2S,4R)-2-(1-(2-fluoroethyl)-1H-pyrazol-4-yl)tetrahydro-2H-pyran-4-yl)-6,7-dimethylpteridine] showed an EC50 of 500 to 3000 nM. To `Cc1nc2nc([C@H]3CCO[C@@H](c4cnn(CCF)c4)C3)nc(-c3ccc(F)cc3F)c2nc1C` [Example 150, 4-(2,4-difluorophenyl)-2-((2R,4S)-2-(1-(2-fluoroethyl)-1H-pyrazol-4-yl)tetrahydro-2H-pyran-4-yl)-6,7-dimethylpteridine] belongs less than 50 nM; to `Cc1cnc2c(C34CC(C)(C3)C4)nc([C@H]3C[C@@H](C)O[C@@H](c4cnn(C5CC5)c4)C3)nc2n1` [Example 151, 2-((2R,4S,6R)-2-(1-cyclopropyl-1H-pyrazol-4-yl)-6-methyltetrahydro-2H-pyran-4-yl)-7-methyl-4-(3-methylbicyclo[1.1.1]pentan-1-yl)pteridine], 500 to 3000 nM. The figure for `Cc1nc2nc([C@@H]3CCO[C@H](c4cnn(C5CC5)c4)C3)nc(-c3cc(F)c(F)cc3F)c2nc1C` [Example 152, 2-((2S,4R)-2-(1-cyclopropyl-1H-pyrazol-4-yl)tetrahydro-2H-pyran-4-yl)-6,7-dimethyl-4-(2,4,5-trifluorophenyl)pteridine] is 500 to 3000 nM; for `Cc1nc2nc([C@H]3CCO[C@@H](c4cnn(C5CC5)c4)C3)nc(-c3cc(F)c(F)cc3F)c2nc1C` [Example 153, 2-((2R,4S)-2-(1-cyclopropyl-1H-pyrazol-4-yl)tetrahydro-2H-pyran-4-yl)-6,7-dimethyl-4-(2,4,5-trifluorophenyl)pteridine] it is less than 50 nM.

On to `Cc1nc2nc([C@@H]3CCO[C@H](c4cnn(C5CC5)n4)C3)nc(-c3ccc(F)cc3F)c2nc1C` [Example 154, 2-((2S,4R)-2-(2-cyclopropyl-2H-1,2,3-triazol-4-yl)tetrahydro-2H-pyran-4-yl)-4-(2,4-difluorophenyl)-6,7-dimethylpteridine], for which the 50% effective concentration (EC50) lay in the range of 50 to 500 nM. To `Cc1nc2nc([C@H]3CCO[C@@H](c4cnn(C5CC5)n4)C3)nc(-c3ccc(F)cc3F)c2nc1C` [Example 155, 2-((2R,4S)-2-(2-cyclopropyl-2H-1,2,3-triazol-4-yl)tetrahydro-2H-pyran-4-yl)-4-(2,4-difluorophenyl)-6,7-dimethylpteridine] belongs 50 to 500 nM. Compound `[2H]C([2H])([2H])n1cc([C@H]2C[C@@H](c3nc(-c4ccc(F)cc4F)c4nc(C)c(C)nc4n3)CCO2)cn1` [Example 156] displayed a concentration giving a half-maximal response (EC50) of 50 to 500 nM. To `Cc1nc2nc([C@H]3C[C@@H](C)O[C@@H](c4cnn(C5CC5)c4)C3)nc(-c3cc(F)c(F)cc3F)c2nc1C` [Example 157, 2-((2R,4S,6R)-2-(1-cyclopropyl-1H-pyrazol-4-yl)-6-methyltetrahydro-2H-pyran-4-yl)-6,7-dimethyl-4-(2,4,5-trifluorophenyl)pteridine] belongs less than 50 nM; to `Cc1nc2nc([C@@H]3C[C@@H](C)O[C@@H](c4cnn(C5CC5)c4)C3)nc(-c3cc(F)c(F)cc3F)c2nc1C` [Example 158, 2-((2R,4R,6R)-2-(1-cyclopropyl-1H-pyrazol-4-yl)-6-methyltetrahydro-2H-pyran-4-yl)-6,7-dimethyl-4-(2,4,5-trifluorophenyl)pteridine], 50 to 500 nM.

As usually defined, the EC50 is the concentration at which the effect is half-maximal. A lower EC50 goes with higher potency in that assay.
